Test results: patent US7368100B2, “Backbone-substituted bifunctional DOTA ligands, complexes and compositions thereof, and methods of using same” (The United States of America, represented by the Secretary, …, priority 2002, dated 2008)

Key:
[1] = tested on: HER2 positive cells (N87); assay: Live-cell radioimmunoassay (immunoreactivity) of radiolabeled HERCEPTIN preparations; format: binding, human; conditions: for HER2 + (percent binding): N87 cells, overnight 4° C., average of the serial dilutions; for HER2 − (percent binding): column HER2 −, not explained, text describes incubation with excess (10 μg) unlabeled HERCEPTIN
Method: The human colon carcinoma (LS-174T) cell line was grown in supplemented Eagle's minimum essential medium as previously described (see Brechbiel et al., Inorg Chem., 25, 2772 (1986); and Lagunas-Solar et al., Appl. Radiat. Isot., 38, 129-137 (1987)). The human gastric carcinoma cell line (N87) was kindly provided by Dr. Raya Mandler, Metabolism Branch, NCI. The N87 cell line (Jurcic et al., Advances in Pharmacology, Vol. 33, (J. T. August, M. W. Anders, F. Murad, J. T. Coyle Eds.) pp 287-314, Academic Press, Inc., New York, (1995)), which expresses high levels of HER2, was maintained in RPMI 1640 (Quality Biologicals, Gaithersburg, Md.) medium, supplemented with 10% fetal bovine serum (FBS) (Gemini Bio-Products, Woodland, Calif.) and 0.01 mM non-essential amino acids (Quality Biologicals, Gaithersburg, Md.).
The immunoreactivity of the RIC was assessed in a live-cell radioimmunoassay (RIA) as detailed elsewhere (Garmestani et al., Nuci. Med. Biol., 29, 599-606 (2002)). HER2 positive cells (N87) were harvested, pelleted at 1,000×g (Allegra 6KR; Beckman Coulter, Palo Alto, Calif.) and resuspended in PBS (pH 7.2) containing 1% BSA and were added to 12×75 […] polypropylene tubes (1×10^6 cells in 100 μL). Serial dilutions of the radiolabeled HERCEPTIN preparations (about 200,000 cpm -12,500 cpm in 50 μL) were then added in duplicate and gently shaken. Following an overnight incubation at 4° C., the cells were washed once with 4 mL of 1% BSA in PBS and pelleted at 1,000×g for 5 min, and the supernatant was decanted. The pelleted cells were then counted in a γ-scintillation counter (Packard), and the percent binding was calculated for each dilution. The values presented in Table 1 are an average of the serial dilutions. To confirm the specific reactivity of the RIC, cells were incubated with about 200,000 cpm of the RIC along with an excess (10 μg) of unlabeled HERCEPTIN.

[2] = tested on: human colon carcinoma (LS-174T) xenografts; conditions: mouse, in vivo
Method: The radioimmunoconjugates (RICs) were compared in vivo using athymic mice bearing human colon adenocarcinoma xenografts. Female athymic mice (nu/nu), obtained from Charles River Laboratories (Wilmington, Mass.) at 4-6 weeks of age, were injected subcutaneously on the flank with 2×10^6 LS-174T cells in 0.2 mL of RPMI-1640. At approximately 10-14 days, when the tumors measured between 0.4-0.6 cm in diameter, the mice received the ^177Lu-labeled HERCEPTIN. The mice were injected with each RIC (about 5 μCi of each) intravenously (i.v.) via the tail vein. Mice (n=5) were sacrificed by exsanguination at 24, 48, 72, 96 and 168 h.
Blood, tumor and the major organs were collected and wet-weighed, and the radioactivity was counted in a γ-counter (Minaxi-γ, Packard, Downers Grove, Ill.). The percent injected dose per gram (% ID/g) was determined for each tissue as well as the radiolocalization indices (% ID/g in tumor divided by the % ID/g in the normal tissue). The mean and average deviation for each tissue was also calculated.
Following injection of the radioimmunoconjugates (n=5), blood samples were collected at various time points via the tail vein in heparinized capillary tubes (10 μL). The blood was transferred to a tube, and the radioactivity was measured in a γ-counter. The percent injected dose per mL of blood was calculated for each of the samples.
If the radioactivity in the tissues is due to specific accumulation, then the tissue-to-blood ratio would increase as a function of time. If the radioactivity in the tissues is a result of that radioactivity present in the plasma compartment, then the tissue-to-blood ratio would remain constant with time.

leukemia cell line = conditions: directed against a leukemia cell line; Nikula et al. 1999; cited from earlier work

| Substance | HER2 + (percent binding) [1] | HER2 − (percent binding) [1] | liver % ID/g, comparison among RIC [2] | spleen-to-blood ratios [2] | cell killing ability (leukemia cell line) | femur-to-blood ratios, course over time [2] |
| --- | --- | --- | --- | --- | --- | --- |
| 1B4M-DOTA (7) | 47.2% | 6.7% | lowest liver % ID/g values throughout the entire study period | less than 1 |  |  |
| Bismuth-labeled HuM195 |  |  |  |  | specific and potent cell killing ability |  |
| CHX-DOTA (14) | 45.8% | 4.3% |  | less than 1 |  | higher overall than the other RIC |
